US12310980B2, “Synthesis of a potent aromatase inhibitor 17α-acetoxy-10β,11β-dihydroxy-progesterone for the treatment of ER+ breast cancer” (priority 2023, dated 2025)
Read-outs that look alike come from different tables or passages of the source.

What was measured:
human aromatase = target: T1, human aromatase (Homo sapiens, UniProt P11511); assay: UPLC-based aromatase inhibition assay; format: biochemical
T1 construct: containing protein (2 mg) from human placental microsomes; from tissue; host or cells: human placenta (microsomes)
T1 sequence (P11511 1-503): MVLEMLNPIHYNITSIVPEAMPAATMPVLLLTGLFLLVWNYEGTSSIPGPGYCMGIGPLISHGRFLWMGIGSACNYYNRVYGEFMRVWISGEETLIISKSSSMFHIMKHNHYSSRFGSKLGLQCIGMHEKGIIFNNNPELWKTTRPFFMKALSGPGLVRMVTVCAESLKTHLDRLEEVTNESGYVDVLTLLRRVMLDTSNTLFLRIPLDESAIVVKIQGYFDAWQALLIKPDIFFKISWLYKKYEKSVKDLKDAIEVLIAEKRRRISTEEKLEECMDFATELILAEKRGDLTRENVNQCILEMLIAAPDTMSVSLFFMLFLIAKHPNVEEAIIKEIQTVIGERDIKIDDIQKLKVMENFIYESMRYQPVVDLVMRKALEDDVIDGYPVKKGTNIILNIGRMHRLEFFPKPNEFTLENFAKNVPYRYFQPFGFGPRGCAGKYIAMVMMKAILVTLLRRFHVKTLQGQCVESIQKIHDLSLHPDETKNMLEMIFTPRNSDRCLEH

[1] = test system: human fibroblast cell line; assay: cytotoxicity against human fibroblast cell line
ovulation = conditions: oral dosage of 10 mg/day in combination with 50 μg/day ethinylestradiol; cited from earlier work

SMILES | IC50 (human aromatase) | cytotoxicity [1] | inhibition of ovulation (ovulation) | IC50 (human aromatase; in vitro, human placental microsomes, testosterone substrate, read-out: aromatase inhibition IC50)
CC(=O)O[C@]1(C(C)=O)CC[C@H]2[C@@H]3CCC4=CC(=O)CC[C@]4(O)[C@H]3[C@@H](O)C[C@@]21C [Compound 2, 17α-Acetoxy-10β,11β-dihydroxy-progesterone] | 827 ± 66 nM | non-cytotoxic | – | –
CC(=O)O[C@]1(C(C)=O)CC[C@H]2[C@@H]3CCC4=CC(=O)CC[C@@H]4[C@H]3CC[C@@]21C [Compound 1, 17α-acetoxy-19-nor-progesterone] | – | – | inhibit ovulation | 740 ± 24.1 nM
